Laboratory results: PMC8187479, “Sugar phosphate activation of the stress sensor eIF2B” (Nature Communications, 2021)
Changes are numbered by the printed parent chain. Several values for one entry are separate records, joined by “and”; a condition that tells them apart may be missing. Equal values may be shown once. One block for each molecule: values may come before it.

Assays:
eIF2Bα [1] = molecular target: T1, eIF2Bα (Homo sapiens, UniProt Q14232); experiment: MIDAS (mass spectrometry integrated with equilibrium dialysis) metabolite binding screen; details: MIDAS screen, sheet eIF2Ba; metabolites screened in pools 1-4; p-value and q-value given
T1 construct: made in house; host or cells: E. coli BL21(DE3)
T1 sequence (Q14232 1-305): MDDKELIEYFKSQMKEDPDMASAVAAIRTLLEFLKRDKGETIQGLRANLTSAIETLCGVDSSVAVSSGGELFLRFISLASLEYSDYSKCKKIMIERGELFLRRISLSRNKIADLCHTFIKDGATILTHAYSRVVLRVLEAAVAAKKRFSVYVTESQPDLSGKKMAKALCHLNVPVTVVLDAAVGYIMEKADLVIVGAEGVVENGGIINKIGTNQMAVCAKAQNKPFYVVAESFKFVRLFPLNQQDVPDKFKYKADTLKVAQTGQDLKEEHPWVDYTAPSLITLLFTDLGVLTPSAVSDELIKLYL
Summary of the method: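 Hits called at Storey q < 0.1 on z-scores of PCA-corrected log2 fold change between protein and metabolite chambers, quantified by FIA-MS in triplicate.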

eIF2Bα [2] = molecular target: T1, eIF2Bα; experiment: Differential scanning fluorimetry (Protein Thermal Shift), eIF2Bα Tm; format: binding; details: individual replicates Rep 1-4, control without metabolite about 64.1
Method: The effect of metabolite binding on eIF2Bα Tm was assessed using the Protein Thermal Shift assay (Thermo Fisher), following manufacturer’s instructions. Briefly, reaction conditions for each 20 μL reaction were: 1.1 μg (1.5 μM) of eIF2Bα, 5 μl Thermal Shift buffer, 1X Thermal Shift dye, and metabolites in dose response. Reactions were run in 384-well format on a QuantStudio 6 Flex instrument (Thermo Fisher). The resulting melt curves were analyzed using Protein Thermal Shift Software, and eIF2Bα Tms for each condition were calculated by fitting to the Boltzmann function.

eIF2B = molecular target: T2, eIF2B (Homo sapiens, UniProt P49770+Q14232+Q9UI10); experiment: eIF2B GEF activity assay, unbiased metabolite screen (Bodipy-FL-GDP release); format: biochemical; details: 10 μM metabolite
T2 construct: made in house; host or cells: eIF2Bα: E. coli BL21(DE3)
Method: (§1) Bodipy-FL-GDP-loaded eIF2 was used as a substrate for recombinant eIF2B. The assay was performed in 384-well plates. Reactions were read on a SpectraMax i3x plate reader (Molecular Devices) using the instrument’s Softmax Pro software with the following parameters: plate temperature = 25 °C; excitation wavelength = 485 nm (15 nm width); emission wavelength = 535 nm (25 nm width); read duration = 30 min at 45 s intervals. Data were analyzed in Prism. GDP release half-lives were calculated by fitting single-exponential decay curves.
For unbiased screening, MIDAS metabolite libraries at 10 mM stock concentration were dispensed into wells of the assay plate using an Echo Acoustic Liquid Handler (Labcyte). […] A single well was run for each metabolite. […] For targeted experiments with HEK293T lysates, the following conditions were used: 50 nM Bodipy-FL-GDP-loaded eIF2, 0.1 mM GDP, 1 mg/ml BSA, 0.1 or 0.3 mg/ml lysates.

[3] = tested on: recombinant C. thermophilum eIF2Bα; design: method as in PMID 26384431; details: ITC; cited from earlier work
[4] = molecular target: T3, eIF2B in WT HEK293T lysate (Homo sapiens, UniProt P49770+Q14232+Q9UI10); experiment: GEF activity assay with WT HEK293T lysate; format: biochemical
T3 construct: endogenous in cells; host or cells: HEK293T (wild type) lysate
Method: as §1
(§2) For unbiased screening, MIDAS metabolite libraries at 10 mM stock concentration were dispensed into wells of the assay plate using an Echo Acoustic Liquid Handler (Labcyte). In a final assay volume of 10 μL/well, the following conditions were kept constant: 25 nM Bodipy-FL-GDP-loaded eIF2, 4 nM phospho-eIF2, 0.1 mM GDP, 1 mg/mL BSA, 1 nM eIF2B, 10 μM metabolite. A single well was run for each metabolite. For targeted experiments with recombinant wild-type and mutant eIF2Bα, the following conditions were used: 50 nM Bodipy-FL-GDP-loaded eIF2, 0.1 mM GDP, 1 mg/ml BSA, 20 nM eIF2B. For targeted experiments with HEK293T lysates, the following conditions were used: 50 nM Bodipy-FL-GDP-loaded eIF2, 0.1 mM GDP, 1 mg/ml BSA, 0.1 or 0.3 mg/ml lysates.

[5] = molecular target: T4, eIF2B in eIF2Bα^E198K HEK293T lysate (Homo sapiens, UniProt P49770+Q14232+Q9UI10, E198K); experiment: GEF activity assay with eIF2Bα E198K HEK293T lysate; format: biochemical
T4 construct: endogenous in cells; host or cells: HEK293T, CRISPR knock-in eIF2Bα E198K (homozygous), lysate
T4 sequence (Q14232 whole entry E198K): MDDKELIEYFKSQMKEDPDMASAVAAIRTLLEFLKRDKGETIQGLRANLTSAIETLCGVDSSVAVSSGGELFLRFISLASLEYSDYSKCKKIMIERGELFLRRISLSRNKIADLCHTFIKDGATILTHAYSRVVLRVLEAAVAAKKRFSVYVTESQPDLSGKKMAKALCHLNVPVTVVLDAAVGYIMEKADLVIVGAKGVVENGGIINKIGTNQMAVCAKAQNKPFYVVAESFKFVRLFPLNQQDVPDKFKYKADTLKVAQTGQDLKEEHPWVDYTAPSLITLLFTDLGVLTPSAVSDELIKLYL
T4 sequence (P49770 whole entry): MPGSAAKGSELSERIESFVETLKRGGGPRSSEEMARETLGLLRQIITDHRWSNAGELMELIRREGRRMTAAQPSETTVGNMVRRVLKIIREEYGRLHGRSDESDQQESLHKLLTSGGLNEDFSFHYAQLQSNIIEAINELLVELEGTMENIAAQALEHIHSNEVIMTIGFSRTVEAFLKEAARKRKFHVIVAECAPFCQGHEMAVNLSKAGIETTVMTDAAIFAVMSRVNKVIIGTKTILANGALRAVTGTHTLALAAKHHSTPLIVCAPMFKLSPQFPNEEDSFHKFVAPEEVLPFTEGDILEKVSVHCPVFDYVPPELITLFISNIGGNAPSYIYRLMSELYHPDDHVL
T4 sequence (Q9UI10 whole entry): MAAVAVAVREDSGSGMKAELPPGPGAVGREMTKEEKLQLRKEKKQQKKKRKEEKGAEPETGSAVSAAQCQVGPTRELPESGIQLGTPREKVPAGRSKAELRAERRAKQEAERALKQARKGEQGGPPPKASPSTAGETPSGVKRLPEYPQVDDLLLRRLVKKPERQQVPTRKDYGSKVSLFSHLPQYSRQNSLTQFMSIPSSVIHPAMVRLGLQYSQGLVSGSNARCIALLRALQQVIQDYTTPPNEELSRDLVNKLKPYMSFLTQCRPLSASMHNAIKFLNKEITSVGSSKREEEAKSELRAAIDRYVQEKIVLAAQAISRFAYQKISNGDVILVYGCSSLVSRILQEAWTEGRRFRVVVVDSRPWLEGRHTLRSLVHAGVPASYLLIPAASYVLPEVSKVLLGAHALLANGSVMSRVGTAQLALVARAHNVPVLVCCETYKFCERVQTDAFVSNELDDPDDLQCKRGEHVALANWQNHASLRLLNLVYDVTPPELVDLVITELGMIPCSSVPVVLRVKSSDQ
T4 sequence (Q9NR50 whole entry partner): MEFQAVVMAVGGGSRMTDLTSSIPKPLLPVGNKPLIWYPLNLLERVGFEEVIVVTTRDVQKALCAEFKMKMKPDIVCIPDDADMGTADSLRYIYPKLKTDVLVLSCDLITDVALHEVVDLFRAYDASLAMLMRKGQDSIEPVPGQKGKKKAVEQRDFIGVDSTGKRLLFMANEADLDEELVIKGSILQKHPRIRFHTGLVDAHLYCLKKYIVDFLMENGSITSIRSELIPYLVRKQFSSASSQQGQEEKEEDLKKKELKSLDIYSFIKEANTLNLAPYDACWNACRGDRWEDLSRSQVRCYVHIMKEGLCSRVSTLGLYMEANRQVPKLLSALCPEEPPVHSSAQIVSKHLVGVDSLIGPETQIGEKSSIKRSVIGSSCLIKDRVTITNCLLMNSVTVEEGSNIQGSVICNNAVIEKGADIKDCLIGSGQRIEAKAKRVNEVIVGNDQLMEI
T4 sequence (Q13144 whole entry partner): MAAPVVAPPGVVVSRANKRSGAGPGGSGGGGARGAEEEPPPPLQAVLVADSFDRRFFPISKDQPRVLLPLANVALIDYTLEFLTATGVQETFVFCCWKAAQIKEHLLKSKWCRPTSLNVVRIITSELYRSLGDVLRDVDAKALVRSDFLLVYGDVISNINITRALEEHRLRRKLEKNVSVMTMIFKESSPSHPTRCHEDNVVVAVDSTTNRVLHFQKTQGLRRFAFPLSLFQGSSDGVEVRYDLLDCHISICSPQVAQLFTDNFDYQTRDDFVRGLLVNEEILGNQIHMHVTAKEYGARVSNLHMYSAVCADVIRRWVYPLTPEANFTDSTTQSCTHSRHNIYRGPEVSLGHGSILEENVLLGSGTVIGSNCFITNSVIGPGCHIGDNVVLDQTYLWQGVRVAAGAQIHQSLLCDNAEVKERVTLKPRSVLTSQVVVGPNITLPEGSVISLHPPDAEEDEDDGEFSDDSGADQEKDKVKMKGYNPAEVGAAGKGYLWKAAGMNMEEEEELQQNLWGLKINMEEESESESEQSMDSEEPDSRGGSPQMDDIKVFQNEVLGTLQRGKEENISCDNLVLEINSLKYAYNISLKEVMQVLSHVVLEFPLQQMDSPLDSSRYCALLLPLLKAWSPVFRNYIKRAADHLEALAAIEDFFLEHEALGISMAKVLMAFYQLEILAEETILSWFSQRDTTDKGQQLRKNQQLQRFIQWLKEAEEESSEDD
Method: as §1, §2

[6] = molecular target: T5, eIF2B decamer in WT HEK293T lysate (Homo sapiens, UniProt P49770+Q14232+Q9UI10); experiment: Sucrose gradient centrifugation, eIF2B complex assembly, WT HEK293T lysate; format: biochemical; details: 400 mM KCl, 5–20% sucrose gradient
T5 construct: endogenous in cells; host or cells: HEK293T (wild type) lysate
Method: (§3) WT or eIF2Bα mutant HEK293T cells were harvested and lysed in 50 mM HEPES, 400 mM KCl, 1 mM DTT, 4 mM Mg(OAc)2, pH 7.5 + 0.5% Triton-X-100 + EDTA-free protease inhibitor cocktail (Roche) on ice for 30 min. Lysates were cleared by centrifugation at 48,000 × g, 4 °C for 30 min. 100 μL of each cleared lysate was loaded onto a 5–20% sucrose gradient prepared in a 13 × 51 mm ultracentrifuge tube using a Gradient Station (Biocomp) and centrifuged in a SW55 Ti rotor at 152,000 × g, 4 °C for 12 h. After centrifugation, 24 × 200 μL fractions were manually collected from the top to bottom of each gradient. Each fraction was subjected to methanol/chloroform precipitation and SDS-PAGE followed by Western Blot with the indicated antibodies. Blots were imaged on a ChemiDoc MP (Bio-Rad), and band intensities were quantified using the instrument’s Image Lab software. Each value was then divided by total intensity obtained across all fractions to determine percent enrichment of each subunit in each fraction.

[7] = molecular target: T6, eIF2B decamer in eIF2Bα^E198K HEK293T lysate (Homo sapiens, UniProt P49770+Q14232+Q9UI10, E198K); experiment: Sucrose gradient centrifugation, eIF2B complex assembly, eIF2Bα E198K HEK293T lysate; format: biochemical
T6 construct: endogenous in cells; host or cells: HEK293T, CRISPR knock-in eIF2Bα E198K (homozygous), lysate
Method: as §3

[8] = molecular target: T7, eIF2B decamer in eIF2Bα^V183F HEK293T lysate (Homo sapiens, UniProt P49770+Q14232+Q9UI10, V183F); experiment: Sucrose gradient centrifugation, eIF2B complex assembly, eIF2Bα V183F HEK293T lysate; format: biochemical; details: 500 nM ISRIB, 200 μM F6P
T7 construct: endogenous in cells
T7 sequence (Q14232 whole entry V183F): as the sequence (Q14232 whole entry E198K) above, with V183F, K198E counted along it
T7 sequence (P49770 whole entry): as the sequence (P49770 whole entry) above
T7 sequence (Q9UI10 whole entry): as the sequence (Q9UI10 whole entry) above
T7 sequence (Q9NR50 whole entry partner): as the sequence (Q9NR50 whole entry partner) above
T7 sequence (Q13144 whole entry partner): as the sequence (Q13144 whole entry partner) above
Method: as §3

[9] = molecular target: T8, recombinant eIF2B(βδγε) ± eIF2Bα2 (Homo sapiens, UniProt P49770+Q14232+Q9UI10); experiment: Size-exclusion chromatography of recombinant eIF2B(βδγε) with or without eIF2Bα; format: biochemical; details: SEC, recombinant eIF2B(βδγε) + eIF2Bα2; 500 nM ISRIB, 200 μM F6P
T8 construct: made in house; host or cells: eIF2Bα: E. coli BL21(DE3)
Method: (§4) Purified proteins were thawed and centrifuged at 20,000 × g, 10 min, 4 °C to remove any potential precipitate. Concentrations of eIF2B(βδγε) and eIF2Bα were normalized to 2 μM and 2.4 μM, respectively. 0.2 mL of each mixture was injected onto a Superose 6 Increase 10/300 column connected to an AKTA Pure 25 FPLC system (GE Healthcare). The system was run at 0.5 mL/min for 1 h using 25 mM HEPES, 200 mM KCl, 2 mM MgCl2, 1 mM DTT, pH 7.5 as the mobile phase. For conditions with ISRIB, the protein samples and mobile phase were supplemented with 500 nM ISRIB. For conditions with F6P, the protein samples and mobile phase were supplemented with 200 μM F6P. UV280 measurements were obtained directly by the instrument.

[10] = molecular target: T9, recombinant eIF2B(βδγε) ± eIF2Bα2 (Homo sapiens, UniProt P49770+Q9UI10); experiment: as above; format: biochemical; details: SEC, recombinant eIF2B(βδγε); 500 nM ISRIB, 200 μM F6P
T9 construct: made in house; host or cells: eIF2Bα: E. coli BL21(DE3)
Method: as §4

eIF2Bα^V183F = molecular target: T10, eIF2Bα^V183F (Homo sapiens, UniProt Q14232, V183F); experiment: Size-exclusion chromatography of recombinant eIF2Bα V183F, alone or with eIF2B(βδγε); format: biochemical; details: SEC, eIF2Bα V183F alone
T10 construct: made in house; host or cells: E. coli BL21(DE3)
T10 sequence (Q14232 1-305 V183F): T1 sequence (Q14232 1-305) with V183F
Method: as §4

[11] = molecular target: T11, phospho-eIF2α binding to eIF2B (Homo sapiens, UniProt P49770+Q14232+Q9UI10); experiment: Phospho-eIF2α co-immunoprecipitation with FLAG-tagged eIF2B; details: lysate of thapsigargin-treated HEK293T eIF2Bβ-FLAG cells; ligand 2 h at 4 °C
T11 construct: endogenous in cells; host or cells: HEK293T with FLAG knock-in at the endogenous eIF2Bβ locus, treated with thapsigargin; lysate, anti-FLAG IP
Method: HEK293T cells endogenously expressing eIF2Bβ with a C-terminal FLAG tag were maintained in DMEM High Glucose (Corning CellGro) supplemented with 10% FBS (Gibco) and antibiotic-antimycotic (Gibco). Upon reaching 90% confluency, cells were treated with either DMSO or 100 nM thapsigargin (Sigma) for 4 h. Cells were harvested and lysed in 25 mM HEPES, 150 mM KCl, 1% NP-40, 1 mM EDTA, pH 7.4 + Complete protease inhibitor cocktail (Roche) and PhosStop (Roche) on ice for 20 min. Lysates were cleared by centrifugation at 18,000 × g, 20 min, 4 °C, and transferred to Eppendorf tubes containing anti-FLAG M2 magnetic beads (Sigma). Mixtures were incubated overnight at 4 °C. To test the effect of ligands, these were added to the mixtures and incubated for an additional 2 h at 4 °C. Beads were washed three times with lysis buffer, eluted with 1× LDS buffer (Invitrogen), and subjected to SDS-PAGE followed by Western Blot with the indicated antibodies.

[12] = molecular target: the molecule itself; experiment: SEC; purified eIF2Bα alone, 2.4 μM, Superose 6 Increase 10/300, 25 mM HEPES, 200 mM KCl, 2 mM MgCl2, 1 mM DTT, pH 7.5; no ligand (500 nM ISRIB had no effect)

- log2(corrected fold change) (eIF2Bα [1]): 0.1066
- effect on eIF2B GEF activity in the screen (eIF2B): a hit in this functional assay screen
Molecule: Nc1ncnc2c1ncn2[C@@H]1O[C@H](COP(=O)(O)O)[C@@H](O)[C@H]1O [AMP, Adenosine monophosphate]
- Tm of eIF2Bα (eIF2Bα [2]; 0.33 mM metabolite): 65.271 °C and 65.2418 °C and 65.0115 °C and 64.5232 °C
- Tm of eIF2Bα (eIF2Bα [2]; 1 mM metabolite): 66.0123 °C and 65.9255 °C and 65.7398 °C and 64.0959 °C
- Tm of eIF2Bα (eIF2Bα [2]; 3.3 mM metabolite): 65.3392 °C and 65.2463 °C and 65.3342 °C and 64.7156 °C
- Tm of eIF2Bα (eIF2Bα [2]; 10 mM metabolite): 66.4657 °C and 66.4512 °C and 66.2897 °C and 64.6159 °C
- binding to C. thermophilum eIF2Bα [3]: binding

Molecule: Nc1nc2c(ncn2[C@@H]2O[C@H](COP(=O)(O)O)[C@@H](O)[C@H]2O)c(=O)[nH]1 [GMP]
- Tm of eIF2Bα (eIF2Bα [2]; 0.33 mM metabolite): 65.0444 °C and 64.6931 °C and 64.6421 °C and 63.969 °C
- Tm of eIF2Bα (eIF2Bα [2]; 1 mM metabolite): 65.9427 °C and 65.8956 °C and 65.7456 °C and 64.3903 °C
- Tm of eIF2Bα (eIF2Bα [2]; 3.3 mM metabolite): 65.9427 °C and 65.7951 °C and 65.7602 °C and 64.8164 °C
- Tm of eIF2Bα (eIF2Bα [2]; 10 mM metabolite): 66.5064 °C and 66.3635 °C and 66.1504 °C and 64.9333 °C
- binding to C. thermophilum eIF2Bα [3]: binding

- effect on GEF activity of WT lysate [4]: stimulated
- effect on GEF activity of eIF2Bα E198K lysate [5]: boosted
- eIF2B decamer formation (migration of eIF2Bα and eIF2Bδ) [6]: formation of the decameric holoenzyme
- eIF2B decamer formation [7]: produced a shift to the decameric form
- complex formation in the presence of eIF2Bα [9]: enhanced formation
- complex formation in the absence of eIF2Bα [10]: enhanced formation of an (βδγε)2 octamer
- monomer-to-dimer shift of eIF2Bα V183F (eIF2Bα^V183F): had no effect
- co-immunoprecipitation of phospho-eIF2α with FLAG-tagged eIF2B [11]: significantly disrupted
Molecule: O=C(COc1ccc(Cl)cc1)NC1CCC(NC(=O)COc2ccc(Cl)cc2)CC1 (stereo not shown) [ISRIB, reference compound]
- eIF2B decamer formation [8]: promoted decamer formation at comparable levels

B1: eIF2Bα (eukaryotic translation initiation factor 2B, α subunit), wild type, recombinant (natural protein, human)
chain: T1 sequence (Q14232 1-305)
notes: eIF2Bα, human, UniProt Q14232; called the small 34 kDa eIF2Bα subunit; C-terminal TEV-avi-FLAG tag; also called eIF2Bα2; α2
- stoichiometry N [12]: 2
